Reference: article PMC2648976 (Biochemistry, 2008)
Entries after “also recorded” stand apart in the source; their conditions may differ. Where a SMILES comes first, the peptide text is derived from it. The star is where a group is joined. AMC = Cc1cc(=O)oc2cc(N*)ccc12

Experiments:
WNV NS2B-NS3 protease [1] = biological target: T1, WNV NS2B-NS3 protease (West Nile virus, UniProt Q9Q6P4); assay: NS2B-NS3pro kinetic assay, cleavage of fluorophore-linked; assay type: biochemical; conditions: for substrate inhibition (reaction mechanism): high substrate concentrations
T1 sequence (Q9Q6P4 1428-1467 limits assumed, looked up): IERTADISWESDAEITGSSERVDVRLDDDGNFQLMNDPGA
T1 sequence (Q9Q6P4 1506-1683 limits assumed, looked up): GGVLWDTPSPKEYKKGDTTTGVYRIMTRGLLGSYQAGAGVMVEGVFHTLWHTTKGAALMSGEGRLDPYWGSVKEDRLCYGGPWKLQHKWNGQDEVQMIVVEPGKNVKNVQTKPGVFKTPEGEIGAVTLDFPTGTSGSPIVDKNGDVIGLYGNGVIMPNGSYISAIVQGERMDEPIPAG

WNV NS2B-NS3 protease [2] = biological target: T1, WNV NS2B-NS3 protease; assay: Inhibition of NS2B-NS3pro by product-analog peptides; assay type: biochemical; conditions: for Kd (substrate) compared with Ki1 (inhibitor) / difference between Kd2 (substrate) and Ki2 (inhibitor): mixed inhibitor-substrate inhibition model
[3] = 200 mM Tris pH 9.0, 20% glycerol

Molecule: CC(=O)N[C@@H](CC(=O)O)C(=O)N[C@@H](Cc1ccccc1)C(=O)N[C@@H](C)C(=O)N[C@@H](CO)C(=O)NCC(=O)N[C@@H](CCCCN)C(=O)N[C@@H](CCCNC(=N)N)C(=O)Nc1ccc2c(C)cc(=O)oc2c1 [Ac-DFASGKR-AMC, Ac-Asp-Phe-Ala-Ser-Gly-Lys-Arg-AMC] (Ac-DFASGKR-{AMC})
- substrate inhibition (reaction mechanism) (WNV NS2B-NS3 protease [1]; [3]): substrate inhibition was also observed with the longer substrate (Figure 2b), though it was observed at higher substrate concentrations compared to the tripeptide substrates; also recorded: substrate inhibition model
- substrate inhibition (reaction mechanism) (WNV NS2B-NS3 protease [1]; 200 mM Tris pH 9.0, 20% glycerol, listed as Ac-Asp-Phe-Ala-Ser-Gly-Lys-Arg-AMC): demonstrated substrate inhibition

Molecule: CC(=O)NCC(=O)N[C@@H](CCCNC(=N)N)C(=O)N[C@@H](CCCNC(=N)N)C(N)=O [Ac-GRR-NH2]
- Kd (substrate) compared with Ki1 (inhibitor) (WNV NS2B-NS3 protease [2]): similar
- difference between Kd2 (substrate) and Ki2 (inhibitor) (WNV NS2B-NS3 protease [2]): ~ 2 -fold
- Ki3 (interaction with substrate-inhibited enzyme-substrate complex) (WNV NS2B-NS3 protease [2]; model with and without this interaction similar): large Ki3 which did not play a substantial role in the overall inhibition

Molecule: Cc1cc(=O)oc2cc(NC(=O)[C@H](CCCNC(=N)N)NC(=O)[C@H](CCCNC(=N)N)NC(=O)CNC(=O)OC(C)(C)C)ccc12 [Boc-GRR-AMC, Boc-Gly-Arg-Arg-AMC]
- NS2B-NS3pro activity against substrate (WNV NS2B-NS3 protease [1]; [3]): clearly active
- relative binding (Kd) (WNV NS2B-NS3 protease [1]; Boc-GRR-AMC relative to Ac-DFASGKR-AMC): tighter binding (lower Kd)
- relative extent of substrate inhibition (WNV NS2B-NS3 protease [1]; at high substrate concentrations): more pronounced with Boc-GRR-AMC than with Boc-GKR-AMC (data not shown) or Ac-DFASGKR-AMC
- substrate inhibition (reaction mechanism) (WNV NS2B-NS3 protease [1]; [3]): initial reaction velocities reached a peak and then decreased with increasing substrate concentration; also recorded: substrate inhibition model
- substrate inhibition (reaction mechanism) (WNV NS2B-NS3 protease [1]; 200 mM Tris pH 9.0, 20% glycerol, listed as Boc-Gly-Arg-Arg-AMC): demonstrated substrate inhibition

Molecule: Ac-DFASGKR
- Kd (substrate) compared with Ki1 (inhibitor) (WNV NS2B-NS3 protease [2]): very similar
- difference between Kd2 (substrate) and Ki2 (inhibitor) (WNV NS2B-NS3 protease [2]): ~ 2 -fold
- mechanism of inhibition (WNV NS2B-NS3 protease [2]; model discrimination analysis with Dynafit): mixed inhibitor-substrate inhibition model; also recorded: mixed non-competitive mechanism (with both competitive and uncompetitive interactions)
